Data from patent US11219664B2, “Composition for diagnosing, preventing, or treating vascular smooth muscle cell proliferative diseases using FGF12” (CHUNG-ANG UNIVERSITY INDUSTRY ACADEMIC COOPERATION …, priority 2015, dated 2022).

Legend:
HASMCs = assay: Cell proliferation by Ki67 staining in HASMCs; type: cell-based, human; conditions: pifithrin 10 μM
From the text: (§1) Tissue sections and cells were stained with primary antibody against Ki67 (Dako Inc.), FGF12 (Abcam), phospho-p53 (p-p53; Cell Signaling Technology), α-smooth muscle actin (α-SMA; Sigma), or SM22α (Abcam) and proper fluorescence-labeled secondary antibody. Nuclei were stained with 4′,6-diamidino-2-phenylindole (DAPI). The stained cells were observed using a fluorescence microscope (Nikon). All images shown are representative of independent three experiments.
(§2) For cell proliferation analysis, cells were inoculated triplicate in a 24-well plate, and cultured in the basal medium supplemented with 50 ng/ml platelet-derived growth factor-BB (PDGF-BB; R&D systems), 100 ng/ml Bone morphogenic protein-4 (BMP-4; R&D systems), or 10% FBS. Cell proliferation was determined by an MTS assay (MTS assay; Promega) or immunofluorescence assay using anti-Ki67 IgG (Dako). Five representative color images were randomly acquired from each sample for quantifying Ki67 stained cells (Ki67+ cells), and the percentage of Ki67+ cells was determined through dividing the mean value of Ki67+ cells by the total number of cells on each image.

HPASMCs = assay: Cell proliferation by Ki67 staining in HPASMCs; type: cell-based, human; conditions: pifithrin 10 μM
From the text: as §1, §2

[1] = test system: human aortic smooth muscle cells (HASMCs); assay: FGF12 expression regulation by PDGF-BB in HASMCs (RT-PCR, immunofluorescence); type: cell-based
From the text: as §1
(§3) Total RNA of cells or tissues for reverse transcription-polymerase chain reaction (RT-PCR) was isolated with TRIzol reagent (Invitrogen). Next, cDNA was synthesized from total RNA using primers specific to corresponding genes and a Superscript first-strand synthesis kit (Invitrogen), and was amplified by PCR (30-35 cycles). Glyceraldehyde-3-phosphate dehydrogenase (GAPDH) was used as a loading control. Real-time PCR was performed using a SYBR-Green PCR master mix (Applied biosystems) and the StepOnePlus™ Real Time PCR System (Applied Biosystems). Data were analyzed according to ΔΔCt method, and gene expression values were normalized to GAPDH expression.
(§4) Human aortic vascular smooth muscle cells (HASMCs; ScienCell Research Laboratories) and human pulmonary […] vascular smooth muscle cell (HPASMC, ScienCell Research laboratories) were cultured in smooth muscle growth medium (SMGM, ScienCell Research Laboratories) or basal medium. For a compound inhibitor experiment, HASMCs and HPASMCs were pre-treated with pifithrin (10 μM; Sigma), LY294002 (20 μM; Cell Signaling Technology), PD98059 (50 μM; Cell Signaling Technology), U0 126 (10 μM; Cell Signaling Technology), SB203580 (50 μM; Cell Signaling Technology), and BIRB796 (10 μM; Merck) at 37° C. for 24 hours.

[2] = test system: human pulmonary aortic vascular smooth muscle cells (HPASMCs); assay: FGF12 expression regulation by PDGF-BB in HPASMCs (RT-PCR, immunofluorescence); type: cell-based
From the text: as §1, §3, §4

FGF12 promoter = assay: Luciferase reporter assay with FGF12 promoter; type: cell-based, human; conditions: HASMCs, pGL3-FGF12 reporter, PDGF-BB 50 ng/ml versus removed
Description: For the luciferase reporter assay, approximately 2000 base pairs of the FGF12 5′-UTR were cloned into a firefly luciferase reporter vector (pGL3-phFGF12). HASMCs were co-transfected with an empty vector (pGL3-basic) or pGL3-phFGF12, together with a constitutively active β-galactosidase reporter plasmid as a transfection control. After 48 hours, luciferase and galactosidase activities were analyzed using a luciferase and galactosidase assay kit (Stratagene). The luciferase activity was normalized to galactosidase activity, and expressed as a relative value compared with the luciferase activity measured in HASMCs transfected with pGL3-basic and cultured in a medium containing PDGF-BB (50 ng/ml) for 1 day.

HPASMC = assay: FGF12 expression regulation by BMP in HPASMC (RT-PCR, Western blotting); type: cell-based, human; conditions: for FGF12 protein expression / protein expression of vascular smooth muscle cell differentiation markers (α-SMA, SM22α): 30 ng/ml, 48 hours, western blotting; for level of FGF12 mRNA: 48 hours after addition to basal medium (10 and 30 ng/ml), RT-PCR
Description: as §3
For transfection for FGF12 overexpression, an expression vector (pCMV6-Entry having the c-terminal labeled Myc-DDK) encoding a rat homologous gene (Origene) having 100% amino acid homology with human FGF12 cDNA was used. HASMCs and HPASMCs were transfected with pCMV6-FGF12(pFGF12) or pCMV6-Entry (pEntry) control vector using Lipofectamien™ 2000 according to the protocol of the manufacturer, and selected using G418 (Sigma) for 2 weeks. For the inhibition of FGF12, p53 or BMPR2 expression, subconfluent HASMCs were transfected with specific or non-specific small interfering RNA (siRNA; GE Healthcare) using Lipofectamien™ 2000.
Cell and tissue lysates were separated by SDS-PAGE, and protein bands were transferred on blots. Blots were reacted with appropriate primary antibodies such as FGF12 (Abcam), p-p53 (Cell Signaling Technology), p53 (BD Biosciences), α-SMA (Sigma), SM22α (Abcam), SM-MHC, or β-actin (Santa Cruz biotechnology), followed by treatment with horseradish peroxidase-conjugated secondary antibodies.

[3] = 3 hours after PDGF-BB (50 ng/ml) added to basal medium, RT-PCR
[4] = after 24 hours of PDGF-BB stimulation

pifithrin
cell proliferation of Ad-FGF12-transfected cells (HASMCs): significantly improving the cell proliferation | cell proliferation of Ad-FGF12-transfected cells (HPASMCs): significantly improving the cell proliferation

PDGF-BB: platelet-derived growth factor subunit B homodimer, vascular smooth muscle cell mitogen
mRNA level of FGF12 [1, 3]: greatly decreased | expression level of FGF12 (immunofluorescent experiment) ([1]; PDGF-BB 50 ng/ml, one day): decreased | mRNA level of FGF12 [1, 4]: further decreased | mRNA level of the contractible gene SM-HMC [1, 4]: decreased | mRNA level of the proliferation marker gene CDK1 [1, 4]: increased | mRNA level of FGF12 [2, 3]: greatly decreased | expression level of FGF12 (immunofluorescent experiment) ([2]; PDGF-BB 50 ng/ml, one day): decreased | mRNA level of FGF12 [2, 4]: further decreased | mRNA level of the contractible gene SM-HMC [2, 4]: decreased | transcriptional activity of the FGF12 promoter (FGF12 promoter): inhibits the expression of FGF12 at a transcriptional level

B1: BMP-4: Bone morphogenic protein-4 (protein)
chain: SPKHHSQRARKKNKNCRRHSLYVDFSDVGWNDWIVAPPGYQAFYCHGDCPFPLADHLNSTNHAIVQTLVNSVNSSIPKACCVPTELSAISMLYLDEYDKVVLKNYQEMVVEGCGCR
FGF12 protein expression (HPASMC): increased | protein expression of vascular smooth muscle cell differentiation markers (α-SMA, SM22α) (HPASMC): increased | level of FGF12 mRNA (HPASMC): significantly increased

B2: BMP-7: bone morphogenetic protein, promotes differentiation and inhibits proliferation of vascular smooth muscle cells (protein, UniProt P18075 293-431, looked up)
Bone morphogenetic protein 7: STGSKQRSQNRSKTPKNQEALRMANVAENSSSDQRQACKKHELYVSFRDLGWQDWIIAPEGYAAYYCEGECAFPLNSYMNATNHAIVQTLVHFINPETVPKPCCAPTQLNAISVLYFDDSSNVILKKYRNMVVRACGCH
FGF12 protein expression (HPASMC): increased | protein expression of vascular smooth muscle cell differentiation markers (α-SMA, SM22α) (HPASMC): increased | level of FGF12 mRNA (HPASMC): significantly increased
